Reference: article PMC12736120, “First-in-Human Phase I Clinical Trial of SLC-391, a Novel and Selective AXL Inhibitor, in Patients with Advanced Solid Tumours” (Pharmaceuticals, 2025)
Like-named read-outs stand apart in the source and are kept apart here.

Experiment: Plasma pharmacokinetics, QD and BID cohorts (non-compartmental)
Assay type: in vivo, human
Conditions: for Cmin, Mean / Cmin, Median / AUC / AUC(0-t) / Cmax / Tmax: plasma; for AR Factor (accumulation ratio), AUC0–12 / AR Factor (accumulation ratio), AUC0–last / AR Factor (accumulation ratio), Cmax: C1D21 vs C1D1; for AUC / AUC(0-t) / Cmax / Tmax: human, oral
Experimental: PK parameters were calculated by standard non-compartmental methods for SLC-391. Due to the long half-life of SLC-391 compared to the dosing interval, it was not possible to calculate a number of PK parameters, including plasma half-life and rate of elimination. Accumulation was assessed from the mean accumulation ratio factor (AR factor) calculated as the repeated dose (C1D21) mean value/single dose (C1D1) mean value for the PK parameters Cmax, AUC0–12, and AUC0–last for each dose group.
During QD dosing, blood samples for determination of SLC-391 plasma concentrations were collected predose and at 0.5, 1, 2, 3, 4, 6, 8, and 24 h after SLC-391 administration on cycle 1 day 1 (C1D1) and cycle 1 day 21 (C1D21). During BID dosing, blood samples were collected predose and at 1, 2, 3, 4, 6, 8, and 12 h after the first daily dose (before the second daily dose). Where possible, further samples were then collected at 13, 14, 22, and 24 h after the initial dose (predose C1D2). Blood samples were also collected on C1D21 (steady state) predose and at 1, 2, 3, 4, 6, 8, and 12 h after the first daily dose (before the second daily dose). Where possible, further samples were then collected at 13, 14, 22, and 24 h after the initial C1D21 dose (predose C2D1). An additional blood sample was also taken, where possible, at the end of treatment (EOT) visit.
After collection, blood samples were centrifuged, and plasma was separated and stored at −80 °C. Plasma concentrations of SLC-391 were measured by a validated analytical method involving liquid–liquid extraction followed by high-performance liquid chromatography (HPLC)–mass/mass spectroscopy assay using a Water Quattro Premier tandem quadrupole mass spectroscopy with Waters MassLynx data acquisition and processing software. Plasma analysis was carried out by Microconstants (San Diego, CA, USA) in compliance with the US FDA GLP regulations. The calibration range of the assay was from 0.100 to 100 ng/mL. Quality control samples prepared at 4 different analyte concentrations were analysed with each batch of samples against a separately prepared calibration standard. PK parameters were collected following single (day 1) and repeat dose (day 21) administration. PK parameters were summarised with appropriate descriptive statistics where possible (e.g., mean, geometric mean, median, maximum, minimum, and coefficient of variation). Descriptive PK parameters were determined by standard non-compartmental methods based on the concentration–time data of each subject. The nominal time was used for descriptive statistics calculations, and the actual sample collection times were used in PK analyses. PK analyses were performed using validated Phoenix WinNonlin Professional 8.3 (Certara, L.P., St. Louis, MO, USA).

## Nc1ncc(-c2cnn(C3CCNCC3)c2)cc1-c1nnc(CC2CC2)o1 [SLC-391, 3-(5-[cyclopropylmethyl]-1,3,4-oxadiazol-2-yl)-5-(1-[piperidin-4-yl]-1H-pyrazol-4-yl)-pyridin-2-amine]
25 mg, QD, C1D21
  Cmin, Mean: 10.3 ng/mL
  Cmin, Median: 7.8 ng/mL
50 mg, QD, C1D21
  Cmin, Mean: 34.9 ng/mL
  Cmin, Median: 34.9 ng/mL
75 mg BID, C1D21, mean, n=3, plasma
  Cmin: 147.5 ng/mL
75 mg BID, C1D21, median, n=3, plasma
  Cmin: 128.0 ng/mL
75 mg BID
  AR Factor (accumulation ratio), AUC0–12: 3.2
  AR Factor (accumulation ratio), AUC0–last: 3.2
  AR Factor (accumulation ratio), Cmax: 2.4
100 mg, QD, C1D21
  Cmin, Mean: 151.8 ng/mL
  Cmin, Median: 151.8 ng/mL
110 mg BID, C1D21, mean, n=3, plasma
  Cmin: 145.6 ng/mL
110 mg BID, C1D21, median, n=3, plasma
  Cmin: 90.2 ng/mL
110 mg BID
  AR Factor (accumulation ratio), AUC0–12: 3.5
  AR Factor (accumulation ratio), AUC0–last: 3.7
  AR Factor (accumulation ratio), Cmax: 2.6
125 mg, QD, C1D21
  Cmin, Mean: 33.7 ng/mL
  Cmin, Median: 42.0 ng/mL
150 mg BID, C1D21, mean, n=6, plasma
  Cmin: 243.5 ng/mL
150 mg BID, C1D21, median, n=6, plasma
  Cmin: 242.5 ng/mL
150 mg BID
  AR Factor (accumulation ratio), AUC0–12: 4.4
  AR Factor (accumulation ratio), AUC0–last: 3.9
  AR Factor (accumulation ratio), Cmax: 2.2
150 mg, QD, C1D21
  Cmin, Mean: 102.8 ng/mL
  Cmin, Median: 89.9 ng/mL
200 mg BID, C1D21, mean, n=2, plasma
  Cmin: 471.5 ng/mL
200 mg BID, C1D21, median, n=2, plasma
  Cmin: 471.5 ng/mL
200 mg BID
  AR Factor (accumulation ratio), AUC0–12: 8.7
  AR Factor (accumulation ratio), AUC0–last: 8.0
  AR Factor (accumulation ratio), Cmax: 5.0
25 mg, QD, C1D1, read-out: AUC0–12, Mean
  AUC: 177 ng·h/mL
25 mg, QD, C1D1, read-out: AUC0–12, Median
  AUC: 211 ng·h/mL
25 mg, QD, C1D1, read-out: AUC0–last, Mean
  AUC(0-t): 270 ng·h/mL
25 mg, QD, C1D1, read-out: AUC0–last, Median
  AUC(0-t): 302 ng·h/mL
25 mg, QD, C1D1, read-out: Cmax, Mean
  Cmax: 32.5 ng/mL
25 mg, QD, C1D1, read-out: Cmax, Median
  Cmax: 39.6 ng/mL
25 mg, QD, C1D1, read-out: Tmax, Mean
  Tmax: 2 h
25 mg, QD, C1D1, read-out: Tmax, Median
  Tmax: 2 h
25 mg, QD, C1D21, read-out: AUC0–12, Mean
  AUC: 286 ng·h/mL
25 mg, QD, C1D21, read-out: AUC0–12, Median
  AUC: 232 ng·h/mL
25 mg, QD, C1D21, read-out: AUC0–last, Mean
  AUC(0-t): 461 ng·h/mL
25 mg, QD, C1D21, read-out: AUC0–last, Median
  AUC(0-t): 366 ng·h/mL
25 mg, QD, C1D21, read-out: Cmax, Mean
  Cmax: 41.9 ng/mL
25 mg, QD, C1D21, read-out: Cmax, Median
  Cmax: 41.2 ng/mL
25 mg, QD, C1D21, read-out: Tmax, Mean
  Tmax: 2.7 h
25 mg, QD, C1D21, read-out: Tmax, Median
  Tmax: 2.1 h
50 mg, QD, C1D1, read-out: AUC0–12, Mean
  AUC: 382 ng·h/mL
50 mg, QD, C1D1, read-out: AUC0–12, Median
  AUC: 413 ng·h/mL
50 mg, QD, C1D1, read-out: AUC0–last, Mean
  AUC(0-t): 594 ng·h/mL
50 mg, QD, C1D1, read-out: AUC0–last, Median
  AUC(0-t): 643 ng·h/mL
50 mg, QD, C1D1, read-out: Cmax, Mean
  Cmax: 72.9 ng/mL
50 mg, QD, C1D1, read-out: Cmax, Median
  Cmax: 65.8 ng/mL
50 mg, QD, C1D1, read-out: Tmax, Mean
  Tmax: 2 h
50 mg, QD, C1D1, read-out: Tmax, Median
  Tmax: 1 h
50 mg, QD, C1D21, read-out: AUC0–12, Mean
  AUC: 706 ng·h/mL
50 mg, QD, C1D21, read-out: AUC0–12, Median
  AUC: 706 ng·h/mL
50 mg, QD, C1D21, read-out: AUC0–last, Mean
  AUC(0-t): 1210 ng·h/mL
50 mg, QD, C1D21, read-out: AUC0–last, Median
  AUC(0-t): 1210 ng·h/mL
50 mg, QD, C1D21, read-out: Cmax, Mean
  Cmax: 99.2 ng/mL
50 mg, QD, C1D21, read-out: Cmax, Median
  Cmax: 99.2 ng/mL
50 mg, QD, C1D21, read-out: Tmax, Mean
  Tmax: 1.5 h
50 mg, QD, C1D21, read-out: Tmax, Median
  Tmax: 1.5 h
75 mg, 75 mg BID, C1D1, mean, n=3, plasma, read-out: AUC0–12
  AUC: 706 ng·h/mL
75 mg, 75 mg BID, C1D1, mean, n=3, plasma, read-out: AUC0–last
  AUC(0-t): 1390 ng·h/mL
75 mg, 75 mg BID, C1D1, mean, n=3, plasma, read-out: Cmax
  Cmax: 114 ng/mL
75 mg, 75 mg BID, C1D1, mean, n=3, plasma, read-out: Tmax
  Tmax: 9.4 h
75 mg, 75 mg BID, C1D1, median, n=3, plasma, read-out: AUC0–12
  AUC: 541 ng·h/mL
75 mg, 75 mg BID, C1D1, median, n=3, plasma, read-out: AUC0–last
  AUC(0-t): 1110 ng·h/mL
75 mg, 75 mg BID, C1D1, median, n=3, plasma, read-out: Cmax
  Cmax: 93.4 ng/mL
75 mg, 75 mg BID, C1D1, median, n=3, plasma, read-out: Tmax
  Tmax: 3 h
75 mg, 75 mg BID, C1D21, mean, n=3, plasma, read-out: AUC0–12
  AUC: 2290 ng·h/mL
75 mg, 75 mg BID, C1D21, mean, n=3, plasma, read-out: AUC0–last
  AUC(0-t): 4420 ng·h/mL
75 mg, 75 mg BID, C1D21, mean, n=3, plasma, read-out: Cmax
  Cmax: 267 ng/mL
75 mg, 75 mg BID, C1D21, mean, n=3, plasma, read-out: Tmax
  Tmax: 3 h
75 mg, 75 mg BID, C1D21, median, n=3, plasma, read-out: AUC0–12
  AUC: 2290 ng·h/mL
75 mg, 75 mg BID, C1D21, median, n=3, plasma, read-out: AUC0–last
  AUC(0-t): 4300 ng·h/mL
75 mg, 75 mg BID, C1D21, median, n=3, plasma, read-out: Cmax
  Cmax: 331 ng/mL
75 mg, 75 mg BID, C1D21, median, n=3, plasma, read-out: Tmax
  Tmax: 1.9 h
100 mg, QD, C1D1, n 1, read-out: AUC0–12, Mean
  AUC: 1350 ng·h/mL
100 mg, QD, C1D1, n 1, read-out: AUC0–12, Median
  AUC: 1350 ng·h/mL
100 mg, QD, C1D1, read-out: AUC0–last, Mean
  AUC(0-t): 875 ng·h/mL
100 mg, QD, C1D1, read-out: AUC0–last, Median
  AUC(0-t): 460 ng·h/mL
100 mg, QD, C1D1, read-out: Cmax, Mean
  Cmax: 141 ng/mL
100 mg, QD, C1D1, read-out: Cmax, Median
  Cmax: 112 ng/mL
100 mg, QD, C1D1, read-out: Tmax, Mean
  Tmax: 0.8 h
100 mg, QD, C1D1, read-out: Tmax, Median
  Tmax: 0.9 h
100 mg, QD, C1D21, read-out: AUC0–last, Mean
  AUC(0-t): 1800 ng·h/mL
100 mg, QD, C1D21, read-out: AUC0–last, Median
  AUC(0-t): 1800 ng·h/mL
100 mg, QD, C1D21, read-out: Cmax, Mean
  Cmax: 436 ng/mL
100 mg, QD, C1D21, read-out: Cmax, Median
  Cmax: 436 ng/mL
100 mg, QD, C1D21, read-out: Tmax, Mean
  Tmax: 1.9 h
100 mg, QD, C1D21, read-out: Tmax, Median
  Tmax: 1.9 h
110 mg, 110 mg BID, C1D1, mean, n=3, plasma, read-out: AUC0–12
  AUC: 639 ng·h/mL
110 mg, 110 mg BID, C1D1, mean, n=3, plasma, read-out: AUC0–last
  AUC(0-t): 1170 ng·h/mL
110 mg, 110 mg BID, C1D1, mean, n=3, plasma, read-out: Cmax
  Cmax: 95.2 ng/mL
110 mg, 110 mg BID, C1D1, mean, n=3, plasma, read-out: Tmax
  Tmax: 3 h
110 mg, 110 mg BID, C1D1, median, n=3, plasma, read-out: AUC0–12
  AUC: 593 ng·h/mL
110 mg, 110 mg BID, C1D1, median, n=3, plasma, read-out: AUC0–last
  AUC(0-t): 1130 ng·h/mL
